# Test results taken from patent publication US6495591B1, “Fungal efflux pump inhibitors” (Essential Therapeutics, Inc., priority 1997, dated 2002).
# Like-named read-outs stand apart in the source and are kept apart here.
# How the values were obtained:
# [1] = tested on: C. albicans clinical isolates (n = 33); test: microbe, parasite or virus in culture; assay type: cell-based; settings: Candida albicans
# [2] = tested on: C. albicans YEM-14 (low level CDR1 expressor); test: microbe, parasite or virus in culture; assay type: cell-based; settings: Candida albicans, read-out: MIC Flu alone
# [3] = tested on: C. glabrata clinical isolates (n = 12); test: microbe, parasite or virus in culture; assay type: cell-based; settings: Nakaseomyces glabratus
# [4] = tested on: YEM 15 C. albicans, CDR1CDR2 up; test: microbe, parasite or virus in culture; assay type: cell-based; settings: Candida albicans, read-out: FLU MIC
# [5] = tested on: C. albicans YEM-10 (low level CDR1 expressor); test: microbe, parasite or virus in culture; assay type: cell-based; settings: Candida albicans, read-out: MIC Flu alone
# YEM 51 C. glabrata wt = test: FEPI MIC with/without 1/8 fluconazole MIC at 24 hrs (Table 11); assay type: cell-based; settings: Nakaseomyces glabratus; YEM 51; NCCLS criteria for azoles; read-out: FLU MIC
# [6] = tested on: C. glabrata YEM-17 (CgCDR overexpressor); test: microbe, parasite or virus in culture; assay type: cell-based; settings: YEM-17; fluconazole alone
# [7] = tested on: S. cerevisiae YEM-39 overexpressing CgCDR (C. glabrata); test: microbe, parasite or virus in culture; assay type: cell-based; settings: Saccharomyces cerevisiae
# [8] = tested on: C. glabrata YEM-18 (low level CgBEN and CgCDR expression); test: microbe, parasite or virus in culture; assay type: cell-based; settings: YEM-18; fluconazole alone
# [9] = tested on: C. albicans YEM-21 (BEN deleted); test: microbe, parasite or virus in culture; assay type: cell-based; settings: Candida albicans, read-out: MIC Flu alone
# C. tropicalis = test: microbe, parasite or virus in culture; assay type: cell-based; settings: Candida tropicalis, read-out: Fluconazole MIC, alone
# C. krusei [10] = test: microbe, parasite or virus in culture; assay type: cell-based; settings: Pichia kudriavzevii, read-out: Fluconazole MIC, alone
# [11] = tested on: C. albicans YEM-27 (CDR1, CDR2, BEN, FLU1 deleted); test: microbe, parasite or virus in culture; assay type: cell-based; settings: Candida albicans, read-out: MIC Flu alone
# [12] = tested on: C. glabrata YEM-17 (CgCDR overexpressor); test: microbe, parasite or virus in culture; assay type: cell-based; settings: Nakaseomyces glabratus
# [13] = tested on: S. cerevisiae YEM-1 overexpressing CDR1 (C. albicans); test: microbe, parasite or virus in culture; assay type: cell-based; settings: Saccharomyces cerevisiae
# [14] = tested on: C. albicans YEM-30 (wild-type, no pump deleted); test: microbe, parasite or virus in culture; assay type: cell-based; settings: Candida albicans, read-out: MIC Flu alone
# YEM 30 C. albicans wt = test: FEPI MIC with/without 1/8 fluconazole MIC at 24 hrs (Table 11); assay type: cell-based; settings: Candida albicans, YEM 30
# [15] = tested on: pCgBEN (MF) efflux pump in S. cerevisiae YEM-40; assay type: cell-based, C. glabrata
# [16] = tested on: C. glabrata YEM-16 (low level CgBEN and CgCDR expression); test: microbe, parasite or virus in culture; assay type: cell-based; settings: YEM-16; fluconazole alone
# YEM 53 C. krusei = test: FEPI MIC with/without 1/8 fluconazole MIC at 24 hrs (Table 11); assay type: cell-based; settings: Pichia kudriavzevii; YEM 53; NCCLS criteria for azoles; read-out: FLU MIC
# [17] = tested on: YEM 13 C. albicans BEN up; test: microbe, parasite or virus in culture; assay type: cell-based; settings: Candida albicans, read-out: FLU MIC
# [18] = tested on: C. albicans YEM-12 (low level CDR1 expressor); test: microbe, parasite or virus in culture; assay type: cell-based; settings: Candida albicans, read-out: MIC Flu alone
# [19] = tested on: C. albicans YEM-15 (CDR1 & CDR2 overexpressor); test: microbe, parasite or virus in culture; assay type: cell-based; settings: Candida albicans
# C. krusei YEM-71 = test: Broth dilution checkerboard, azoles and terbinafine with milbemycin α9 (Table 8); assay type: cell-based; settings: Pichia kudriavzevii
# [20] = tested on: C. albicans YEM-20 (CDR1 deleted); test: microbe, parasite or virus in culture; assay type: cell-based; settings: Candida albicans, read-out: MIC Flu alone
# C. lipolytica = test: microbe, parasite or virus in culture; assay type: cell-based; settings: Yarrowia lipolytica, read-out: Fluconazole MIC, alone
# [21] = tested on: C. albicans YEM-29 (BEN, FLU1 deleted); test: microbe, parasite or virus in culture; assay type: cell-based; settings: Candida albicans, read-out: MIC Flu alone
# [22] = tested on: S. cerevisiae YEM-37 overexpressing CDR2 (C. albicans); test: microbe, parasite or virus in culture; assay type: cell-based; settings: Saccharomyces cerevisiae
# [23] = tested on: C. glabrata YEM-19 (CgCDR overexpression, higher than YEM-17); test: microbe, parasite or virus in culture; assay type: cell-based; settings: YEM-19; fluconazole alone
# C. krusei [24] = test: MacSynergy 3-D synergy volume, checkerboard (Table 13); assay type: cell-based
# Text: (§1) The activity of one milbemycin was also studied in checker-board assays. […] It provides information on the extent of synergism between the two drugs and the concentrations at which synergism can be detected. Using differential surface analysis, pick of synergy volumes are quantified for each combination of drugs and strain tested in a traditional checkerboard assay (Table 13).
# C. albicans BEN up = test: as above; assay type: cell-based
# Text: as §1
# [25] = tested on: YEM 27 C. albicans ΔCDR1ΔCDR2 ΔBENΔFLU1; test: microbe, parasite or virus in culture; assay type: cell-based; settings: Candida albicans, read-out: FLU MIC
# [26] = tested on: S. cerevisiae YEM-3 parent strain (no pump); test: microbe, parasite or virus in culture; assay type: cell-based; settings: Saccharomyces cerevisiae, read-out: MIC for the parent strain to fluconazole
# C. neoformans = test: microbe, parasite or virus in culture; assay type: cell-based, Cryptococcus neoformans; settings: Cryptococcus neoformans, read-out: Fluconazole MIC, alone
# [27] = tested on: C. albicans YEM-24 (CDR1, CDR2 deleted); test: microbe, parasite or virus in culture; assay type: cell-based; settings: Candida albicans, read-out: MIC Flu alone
# [28] = tested on: YEM 24 C. albicans ΔCDR1, ΔCDR2; test: microbe, parasite or virus in culture; assay type: cell-based; settings: Candida albicans, read-out: FLU MIC
# [29] = tested on: C. krusei YEM-52 (ATCC 90878), wild type; test: Broth dilution MIC, fluconazole with/without milbemycin oxime (Table 6); assay type: cell-based; settings: Pichia kudriavzevii, ATCC90878; YEM-52 (ATCC 90878); read-out: MIC Flu alone
# C. glabrata, CgCDR up = assay type: cell-based
# Text: as §1
# [30] = tested on: C. albicans ΔCDR1 ΔCDR2 ΔBEN ΔFLU1; assay type: cell-based
# Text: as §1
# [31] = tested on: C. albicans, CDR1, CDR2, up; assay type: cell-based
# Text: as §1
# C. glabrata, wt = test: MacSynergy 3-D synergy volume, checkerboard (Table 13); assay type: cell-based
# Text: as §1
# C. albicans, wt = test: as above; assay type: cell-based
# Text: as §1
# [32] = read-out: Fluconazole MIC90, alone
smiles,measurement,setting,value
"OC(Cn1cncn1)(Cn1cncn1)c1ccc(F)cc1F [Fluconazole, fluconazole, reference compound]",MIC50,"[1]; read-out: Fluconazole MIC50, alone, C. albicans n = 33, MIC (80%) in YPD",1 µg/mL
same,MIC90,[1]; [32],> 128 µg/mL
same,MIC,[2],0.125 µg/mL
same,MIC50,"[3]; read-out: Fluconazole MIC50, alone",32 µg/mL
same,MIC90,[3]; [32],> 128 µg/mL
same,MIC,[4],64 µg/mL
same,MIC,[5],0.25 µg/mL
same,MIC,YEM 51 C. glabrata wt,64 µg/mL
same,Fluconazole MIC with 0 μg/ml milbemycin β1,[6],64 µg/mL
same,MIC,[7]; read-out: Fluconazole MIC,64 µg/mL
same,Fluconazole MIC with 0 μg/ml milbemycin β1,[8],8 µg/mL
same,MIC,[9],0.25 µg/mL
same,MIC,C. tropicalis,> 128 µg/mL
same,MIC,C. krusei [10],128 µg/mL
same,MIC,[11],0.03 µg/mL
same,MIC,[12]; read-out: Fluconazole MIC,128 µg/mL
same,MIC,[13]; read-out: Fluconazole MIC,128 µg/mL
same,MIC,[14],0.5 µg/mL
same,MIC,"YEM 30 C. albicans wt; read-out: FLU MIC at 40 hrs, read at 40 hrs",64 µg/mL
same,MIC,"YEM 30 C. albicans wt; read at 24 hours, read-out: FLU MIC at 24 hours",0.5 µg/mL
same,Fluconazole MIC,[15],32 µg/mL
same,Fluconazole MIC with 0 μg/ml milbemycin β1,[16],16 µg/mL
same,MIC,YEM 53 C. krusei,64 µg/mL
same,MIC,[17],64 µg/mL
same,MIC,[18],2 µg/mL
same,MIC,[19]; read-out: Fluconazole MIC,128 µg/mL
same,MIC,"C. krusei YEM-71; YEM71, read-out: Fluconazole MIC",128 µg/mL
same,MIC,[20],0.125 µg/mL
same,MIC,C. lipolytica,128 µg/mL
same,MIC,[21],0.25 µg/mL
same,MIC,[22]; read-out: Fluconazole MIC,4 µg/mL
same,Fluconazole MIC with 0 μg/ml milbemycin β1,[23],128 µg/mL
same,"Synergy Volume, fluconazole + one milbemycin (FEPI, not named)",C. krusei [24],1178
same,"Synergy Volume, fluconazole + one milbemycin (FEPI, not named)",C. albicans BEN up,196
same,MIC,[25],≤ 0.125 µg/mL
same,MIC,[26],0.5 µg/mL
same,MIC,C. neoformans,> 128 µg/mL
same,MIC,[27],0.125 µg/mL
same,MIC,[28],0.25 µg/mL
same,MIC,[29],64 µg/mL
same,"Synergy Volume, fluconazole + one milbemycin (FEPI, not named)","C. glabrata, CgCDR up",1815
same,"Synergy Volume, fluconazole + one milbemycin (FEPI, not named)",[30],0.08
same,"Synergy Volume, fluconazole + one milbemycin (FEPI, not named)",[31],2337
"CN(C/C=C/C#CC(C)(C)C)Cc1cccc2ccccc12 [Terbinafine, terbinafine]",MIC,[7]; read-out: Terbinafine MIC,4 µg/mL
same,MIC,[12]; read-out: Terbinafine MIC,128 µg/mL
same,MIC,[13]; read-out: Terbinafine MIC,128 µg/mL
same,MIC,[19]; read-out: Terbinafine MIC,128 µg/mL
same,MIC,"C. krusei YEM-71; YEM71, read-out: Terbinafine MIC",128 µg/mL
same,MIC,[22]; read-out: Terbinafine MIC,2 µg/mL
same,"Synergy Volume, terbinafine + one milbemycin (FEPI, not named)","C. glabrata, wt",478
same,"Synergy Volume, terbinafine + one milbemycin (FEPI, not named)",C. krusei [24],1517
same,"Synergy Volume, terbinafine + one milbemycin (FEPI, not named)",C. albicans BEN up,500
same,"Synergy Volume, terbinafine + one milbemycin (FEPI, not named)","C. albicans, wt",2790
same,"Synergy Volume, terbinafine + one milbemycin (FEPI, not named)","C. glabrata, CgCDR up",392
same,"Synergy Volume, terbinafine + one milbemycin (FEPI, not named)",[30],169
same,"Synergy Volume, terbinafine + one milbemycin (FEPI, not named)",[31],1386
